From patent publication US9040521B2, “Methods and compositions for modulating tau levels” (THE J. DAVID GLADSTONE INSTITUTES, priority 2009, dated 2015)

Key:
[1] = test system: tau acetylation in primary neurons; test: western blot of ac-tau, t-tau and p-tau in primary cortical neurons; type: cell-based, rat
Experimental: (§1) Primary cultures were established from cortices of Sprague-Dawley rat pups (Charles River Laboratories) or SIRT1^F/F mice on postnatal day 0 or 1. Purified cells were plated at 160,000 cells/ml in Neurobasal medium supplemented with B27 (Invitrogen) on poly-ornithine coated plates. All treatments were performed at 7-13 DIV in Neurobasal medium supplemented with N2 (Invitrogen) unless noted otherwise.
(§2) Cells or human or mouse brain tissues were lysed in RIPA buffer containing protease inhibitor cocktail (Sigma), 1 mM phenylmethyl sulfonyl fluoride (PMSF) (Sigma), phosphatase inhibitor cocktail (Roche), and HDAC inhibitors, including 5 mM nicotinamide (Sigma) and 1 μM trichostatin A (Sigma). After sonication, lysates from human or mouse brain tissues were centrifuged at 170,000 g at 4° C. for 15 min and at 18,000 g at 4° C. for 10 min. Supernatants were collected and analyzed by western blot. Bands in immunoblots were visualized by enhanced chemiluminescence (Pierce) and quantified by densitometry and Quantity One 4.0 software (Bio-Rad, Hercules, Calif.).

[2] = test system: tau ubiquitination in HEK293T cells; test: in vivo ubiquitination assay in HEK293T cells; type: cell-based, human
Experimental: Procedures were modified from a published study. Oh et al. (2009) Nat Cell Biol 11:295. HEK293T cells were transfected with expression vectors encoding FLAG-tagged human tau and HA-ubiquitin with or without Myc-SIRT1 (wildtype or H363Y mutant). After 2 h of incubation, cells were treated with EX527, resveratrol, or dimethylsulfoxide (DMSO) in Dulbecco's modified Eagle's medium and incubated for 20 h. MG-132 (20 μM) was added and incubated for 4 h. Cells were lysed in ubiquitination buffer (20 mM Tris-HCl, pH 7.5, 0.1 mM EDTA, 0.2% Triton X-100, 150 mM NaCl, and protease inhibitor cocktail). Supernatant proteins were immunoprecipitated with FLAG M2 agarose beads (Sigma) for 3 h at 4° C. Reactions were washed at least three times with ubiquitination buffer and analyzed by SDS-PAGE and western blot with anti-HA antibody (Cell Signaling Technology).

[3] = test system: turnover of endogenous tau in primary neurons; test: tau turnover in primary neurons treated with cycloheximide; type: cell-based, rat
Experimental: as §1, §2
It was then directly examined whether enhancing acetylation of tau slows the turnover of endogenous tau. Primary neurons were treated with EX527 to enhance tau acetylation and with cycloheximide (CHX) to inhibit translation of new proteins. […] Consistent with this notion, ac-tau appears to be degraded slower than that of t-tau.

[4] = test system: tau transcripts; test: real-time RT-PCR of tau transcripts in primary neurons; type: cell-based, rat; conditions: treatment for 8 h
Experimental: as §1

[5] = test system: AT8-positive p-tau in primary neurons expressing hTauP301L; test: p-tau in primary neurons expressing hTauP301L; type: cell-based; conditions: 20 μM, DIV=12
Experimental: as §1
Lentivirus was generated, purified, and used for infection as described. Chen et al. (2005) supra. Recombinant lentivirus was produced by co-transfection of the shuttle vector (FUGW), two helper plasmids, delta8.9 packaging vector, and VSV-G envelope vector into 293T cells and purified by ultracentrifugation. Viral titers were measured by p24 enzyme-linked immunosorbent assays at the Gladstone-UCSF Laboratory of Clinical Virology.
as §2, with “After sonication, lysates from human or mouse brain tissues were centrifuged at 170,000 g at 4° C. for 15 min and at 18,000 g at 4° C. for 10 min.” left out

[6] = test system: six other acetyltransferases (serotonin N-acetyltransferase, pCAF, GCN5, Rtt109, Sas, MOZ); conditions: C646 at 10 μM, cell-free; cited from earlier work
[7] = EX527 50 μM, rat primary neurons DIV=10

With NC(=O)C1CCCc2c1[nH]c1ccc(Cl)cc21 (stereo not shown) [EX527] the AT8-positive p-tau [1, 7] was “markedly increased”, the ac-tau [1, 7] was “markedly increased” and the “levels of ac-tau relative to t-tau” value [1, 7] was “significantly increased”. For the same molecule, the “levels of p-tau relative to t-tau” value [1, 7] was “significantly increased”, the t-tau [1, 7] was “markedly increased” and the ac-tau levels ([2]; 1-50 μM, HEK293T cells) was “elevated”. For the same molecule, the polyubiquitination of tau ([2]; 1-50 μM, HEK293T cells, with MG132) was “prevented polyubiquitination of tau in a dose-dependent manner”, the turnover of ac-tau ([3]; 10 μM, CHX, primary neurons) was “blocked the turnover” and the accumulation of ac-tau ([3]; 50 μM, CHX, primary neurons) was “more pronounced accumulation”. For the same molecule, the “half-life of t-tau (tau turnover)” value ([3]; 10-50 μM, CHX 0-8 h, rat primary neurons DIV=8) was “increased the half-life of t-tau in a dose-dependent manner” and the “degradation of AT8-positive p-tau” value ([3]; 10-50 μM, CHX, primary neurons) was “blocked the degradation”.
For CC1=NN(c2ccc(C(=O)O)cc2)C(=O)/C1=C\c1ccc(-c2cc(C)c(C)cc2[N+](=O)[O-])o1 [Compound C646], the t-tau levels ([1]; 20 μM, 2 h, primary cortical neurons DIV=9) was “without affecting”, the levels of t-tau ([1]; 20 μM, 8 h, primary rat cortical neurons) was “remained unchanged” and the levels of t-tau ([1]; 20 μM, 20 h, primary cortical neurons) was “lowered”. For the same molecule, the “tau phosphorylated at serine 202 (AT8-positive p-tau)” value ([1]; 20 μM, within 2 h, primary cortical neurons) was “abolished”, the ac-tau ([1]; 20 μM, within 2 h, primary cortical neurons DIV=9) was “eliminated” and the levels of ac-tau ([1]; 20 μM, within 8 h, primary rat cortical neurons) was “drastically reduced”. The tau transcripts [4] was “did not suppress”, the AT8-positive p-tau [5] was “diminished” and the “inhibition of the six other acetyltransferases” value [6] was less than 10%.
In the case of Oc1ccc(C=Cc2cc(O)cc(O)c2)cc1 [resveratrol], the tau ubiquitination ([2]; HEK293T cells transfected with SIRT1 H363Y mutant) is reported as “not those with H363Y mutant” and the tau ubiquitination ([2]; HEK293T cells transfected with wildtype SIRT1) is reported as “significantly increased”.
